For twelve compounds, IC50 results are on record in patent publication US8987273B2, “Substituted imidazo[1,2-B]pyridazines” (Bayer Intellectual Property GmbH, priority 2010, dated 2015).

The target of assay [1] is His-tagged human recombinant kinase full-length Akt1 (Homo sapiens (Human), UniProt P31749). The assay can be described thus: Akt1 kinase assay (TR-FRET). It counts as biochemical. The conditions noted are these: 10 μM ATP; median. The source says: Akt1 inhibitory activity of compounds of the present invention was quantified employing the Akt1 TR-FRET assay as described in the following paragraphs. His-tagged human recombinant kinase full-length Akt1 expressed in insect cells was purchased form Invitrogen (part number PV 3599). As substrate for the kinase reaction the biotinylated peptide biotin-Ahx-[…] (C-terminus in amide form) was used which can be purchased e.g. from the company Biosynthan GmbH (Berlin-Buch, Germany).
Chain of His-tagged human recombinant kinase full-length Akt1 (P31749 whole entry): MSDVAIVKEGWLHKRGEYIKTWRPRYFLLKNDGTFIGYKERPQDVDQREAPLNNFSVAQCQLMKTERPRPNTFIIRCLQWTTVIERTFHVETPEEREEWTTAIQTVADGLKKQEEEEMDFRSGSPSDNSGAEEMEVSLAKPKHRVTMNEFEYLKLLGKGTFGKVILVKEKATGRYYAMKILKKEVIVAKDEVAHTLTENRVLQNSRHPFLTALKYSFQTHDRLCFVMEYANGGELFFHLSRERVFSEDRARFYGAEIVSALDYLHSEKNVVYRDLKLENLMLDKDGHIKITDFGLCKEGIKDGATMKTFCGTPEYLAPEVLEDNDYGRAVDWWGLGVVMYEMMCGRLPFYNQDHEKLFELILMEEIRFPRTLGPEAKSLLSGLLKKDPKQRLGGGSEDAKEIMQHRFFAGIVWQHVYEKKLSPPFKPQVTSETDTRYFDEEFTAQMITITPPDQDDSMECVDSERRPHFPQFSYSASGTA
(§1) For the assay 50 nl of a 100 fold concentrated solution of the test compound in DMSO was pipetted into a black low volume 384 well microtiter plate (Greiner Bio-One, Frickenhausen, Germany), 2 μl of a solution of Akt1 in assay buffer [50 mM TRIS/HCl pH 7.5, 5 mM MgCl2, 1 mM dithiothreitol, 0.02% (v/v) Triton X-100 (Sigma)] were added and the mixture was incubated for 15 min at 22° C. to allow pre-binding of the test compounds to the enzyme before the start of the kinase reaction. Then the kinase reaction was started by the addition of 3 μl of a solution of adenosine-tri-phosphate (ATP, 16.7 μM=>final conc. in the 5 μl assay volume is 10 μM) and substrate (1.67 μM=>final conc. in the 5 μl assay volume is 1 μM) in assay buffer and the resulting mixture was incubated for a reaction time of 60 min at 22° C. The concentration of Akt1 in the assay was adjusted depending of the activity of the enzyme lot and was chosen appropriate to have the assay in the linear range, typical enzyme concentrations were in the range of about 0.05 ng/μl (final conc. in the 5 μl assay volume).
The reaction was stopped by the addition of 5 μl of a solution of HTRF detection reagents (200 nM streptavidine-XL665 [Cisbio] and 1.5 nM anti-phosho-Serine antibody [Millipore, cat. #35-001] and 0.75 nM LANCE Eu-W 1024 labeled anti-mouse IgG antibody [Perkin Elmer]) in an aqueous EDTA-solution (100 mM EDTA, 0.1% (w/v) bovine serum albumin in 50 mM HEPES/NaOH pH 7.5).
(§2) The resulting mixture was incubated 1 h at 22° C. to allow the binding of the biotinylated phosphorylated peptide to the streptavidine-XL665 and the antibodies. Subsequently the amount of phosphorylated substrate was evaluated by measurement of the resonance energy transfer from the anti-mouse-IgG-Eu-Chelate to the streptavidine-XL665. Therefore, the fluorescence emissions at 620 nm and 665 nm after excitation at 350 nm was measured in a HTRF reader, e.g. a Rubystar (BMG Labtechnologies, Offenburg, Germany) or a Viewlux (Perkin-Elmer). The ratio of the emissions at 665 nm and at […] was taken as the measure for the amount of phosphorylated substrate. The data were normalised (enzyme reaction without inhibitor=0% inhibition, all other assay components but no enzyme=100% inhibition).
A general note: In TR-FRET formats the signal depends on donor and acceptor labels being close together.

The target in assay [2] is His-tagged human recombinant kinase full-length Akt2 (Homo sapiens (Human), UniProt P31751). The assay can be described thus: Akt2 kinase assay (TR-FRET). It counts as biochemical. The conditions noted are these: 10 μM ATP; median.
Chain of His-tagged human recombinant kinase full-length Akt2 (P31751 whole entry): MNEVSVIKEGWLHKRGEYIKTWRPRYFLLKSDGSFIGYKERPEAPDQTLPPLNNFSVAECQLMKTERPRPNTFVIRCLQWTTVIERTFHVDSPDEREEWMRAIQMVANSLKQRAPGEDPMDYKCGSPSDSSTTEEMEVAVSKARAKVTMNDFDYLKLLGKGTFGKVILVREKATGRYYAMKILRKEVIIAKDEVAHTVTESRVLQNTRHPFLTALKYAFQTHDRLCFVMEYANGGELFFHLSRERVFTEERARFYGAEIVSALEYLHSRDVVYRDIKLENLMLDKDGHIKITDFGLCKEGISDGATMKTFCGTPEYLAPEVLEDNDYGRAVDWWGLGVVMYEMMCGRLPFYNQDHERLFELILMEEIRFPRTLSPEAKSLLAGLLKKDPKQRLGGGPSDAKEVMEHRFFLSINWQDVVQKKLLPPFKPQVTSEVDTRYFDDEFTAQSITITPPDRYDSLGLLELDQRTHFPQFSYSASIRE
Excerpt: Akt2 inhibitory activity of compounds of the present invention was quantified employing the Akt2 TR-FRET assay as described in the following paragraphs.
His-tagged human recombinant kinase full-length Akt2 expressed in insect cells and activated by PDK1 was purchased form Invitrogen (part number PV 3975). As substrate for the kinase reaction the biotinylated peptide biotin-Ahx-[…] (C-terminus in amide form) was used which can be purchased e.g. from the company Biosynthan GmbH (Berlin-Buch, Germany).
as §1, with “Akt2” for “Akt1”, “0.2” for “0.05”
The reaction was stopped by the addition of 5 μl of a solution of HTRF detection reagents (200 nM streptavidine-XL665 [Cisbio] and 1.5 nM anti-phosho-Serine antibody [Millipore, cat. #35-001] and 0.75 nM LANCE Eu-W 1024 labeled anti-mouse IgG antibody [Perkin Elmer]) in an aqueous EDTA-solution (100 mM EDTA, 0.1%/w/v\ bovine serum albumin in 50 mM HEPES/NaOH pH 7.5).
as §2, with “TR-FRET” for “HTRF”

The test system of a further assay is KPL-4 cells. Description: Tumor cell proliferation assay (CellTiter-Glo). It counts as cell-based. To be noted: KPL4; 72 h drug exposure. The procedure: Compounds were tested in a cell-based assay that measures the capacity of the compounds to inhibit tumour cell proliferation following a 72 h drug exposure. Cell viability is determined using CellTiter-Glow® (CTG, Promega, cat# G757112/3). The CellTiter-Glo® Luminescent Cell Viability Assay is a homogeneous method to determine the number of viable cells in culture. Detection is based on using the luciferase reaction to measure the amount of ATP from viable cells. The amount of ATP in cells correlates with cell viability. Within minutes after a loss of membrane integrity, cells lose the ability to synthesize ATP, and endogenous ATPases destroy any remaining ATP; thus the levels of ATP fall precipitously.
Cells were plated at 3000-5000 cells/well (depending on the cell lines) in 90 μL growth medium on MTPs (Corning; #3603, black plate, clear flat bottom). For each cell line assayed, cells were plated onto a separate plate for determination of […] at t=0 hour and t=72 hour time points. Following overnight incubation at 37° C., chemiluminescence values for the t=0 samples were determined after adding 10 μl medium and 100 μl CTG solution according to manufacture protocol. Plates for the t=72 hour time points were treated with compounds diluted into growth medium at ten times final concentration added in 10 μL to the cell culture plate. Cells were then incubated for 72 hours at 37° C. Chemiluminescence values for the t=72 hour samples were determined. For data analysis, briefly, data from 24 h plate where used to reflect 100% inhibition of growth (“Ci”) and DMSO control for uninhibited growth (“C0”) and analyzed using MTS software package for IC50 and Hill coefficient. Experiments were controlled using a reference compound as standard.

The test system of assay [3] is phospho-AKT at S473 in KPL4 breast tumour cell line. The assay can be described thus: Cellular p-AKT1/2/3-S473 assay. The assay is classed as cell-based. The conditions noted are these: KPL4 cells, 2 hours treatment; median; read-out: pAKT-S743 median IC50. The procedure:
The molecular mechanism of action was investigated in a set of experiments to assess the inhibition of the PI3K-AKT-mTOR pathway in responsive cell lines such as KPL4 breast tumour cell line (PIK3CAH1047R, HER2O/E and hormone independent). The phospho-substrates of PI3K-AKT-mTOR axis were used as the read-outs to reflect pathway inhibition. Cells were seeded at 60-80% confluency per well in 96-well cell culture plates. After overnight incubation at 37° C. 5% CO2, cells were treated with compounds and vehicle at 37° C. for 2 hours. […] All measurements where at least done in duplicates and confirmed by independent repetition.
Alternatively pAKT-S473 was measured using the “Akt Duplex” of the MULTI-SPOT® Assay System (Fa. Meso Scale Discovery, Cat# N41100B-1) following manufacturers instructions. Each assay used 20 μg of protein extract and measured total AKT and p-AKT content simultaneously in one well. All measurements where at least done in duplicates and confirmed by independent repetition. Values for P-AKT are expressed as percentage of P-AKT level compared to total-AKT content of the extracts.

Broadly, the IC50 is the concentration that inhibits the measured activity by half. Take `NC1(c2ccc(-c3nn4c(-c5ccc(F)cc5)cnc4cc3-c3ccccc3)cc2)CCC1` [Example 4-3, 1-{4-[3-(4-Fluorophenyl)-7-phenyl-imidazo[1,2-b]pyridazin-6-yl]-phenyl}-cyclobutylamine]: the IC50 worked out at 36 nM in assay [1], 81 nM in assay [2] and 1910 nM in the assay with KPL-4 cells.
For the compound `Cc1cnc2cc(-c3ccccc3)c(-c3ccc(C4(N)CCC4)cc3)nn12` [Example 2-0, 1-[4-(3-Methyl-7-phenyl-imidazo[1,2-b]pyridazin-6-yl)-phenyl]-cyclobutylamine], the IC50 in assay [1] worked out at 441 nM; in assay [2], 1730 nM.
Take `CS(=O)(=O)c1ccc(-c2cnc3cc(-c4ccccc4)c(-c4ccc(C5(N)CCC5)cc4)nn23)cc1` [Example 4-0, 1-{4-[3-(4-Methanesulfonylphenyl)-7-phenyl-imidazo[1,2-b]pyridazin-6-yl]-phenyl}-cyclobutylamine]: the IC50 in assay [1] was determined as 110 nM; in assay [2], 278 nM; with KPL-4 cells, 1850 nM.
On to `COC(=O)c1cccc(-c2cnc3cc(-c4ccccc4)c(-c4ccc(C5(N)CCC5)cc4)nn23)c1` [Example 4-2, 3-{6-[4-(1-Amino-cyclobutyl)-phenyl]-7-phenyl-imidazo[1,2-b]pyridazin-3-yl}-benzoic acid methyl ester], for which the IC50 came out at 4 nM in assay [1], 58 nM in assay [2] and 2560 nM with KPL-4 cells.
With `Cc1nc2cc(-c3ccccc3)c(-c3ccc(C4(N)CCC4)cc3)nn2c1-c1cn[nH]c1` [Example 5-2, 1-{4-[2-Methyl-7-phenyl-3-(1H-pyrazol-4-yl)-imidazo[1,2-b]pyridazin-6-yl]-phenyl}-cyclobutylamine], the IC50 in assay [1] was 4780 nM; in assay [3], 10000 nM; in the assay on KPL-4 cells it was 2750 nM.
Turning to `NC1(c2ccc(-c3nn4ccnc4cc3-c3ccccc3)cc2)CCC1` [Example 1-0, 1-[4-(7-Phenyl-imidazo[1,2-b]pyridazin-6-yl)-phenyl]-cyclobutylamine], the IC50 worked out at 246 nM in assay [1], 1440 nM in assay [2] and 3540 nM in the assay on KPL-4 cells.
For `NC1(c2ccc(-c3nn4c(-c5ccn[nH]5)cnc4cc3-c3ccccc3)cc2)CCC1` [Example 4-15, 1-{4-[7-Phenyl-3-(2H-pyrazol-3-yl)-imidazo[1,2-b]pyridazin-6-yl]-phenyl}-cyclobutylamine], the figures for the IC50 (in assay [1]; in assay [2]; with KPL-4 cells) were 11 nM, 70 nM and 1400 nM, respectively.
On to `COc1cncc(-c2cnc3cc(-c4ccccc4)c(-c4ccc(C5(N)CCC5)cc4)nn23)c1` [Example 4-18, 1-{4-[3-(5-Methoxypyridin-3-yl)-7-phenyl-imidazo[1,2-b]pyridazin-6-yl]-phenyl}-cyclobutylamine], for which the results for the IC50 (in assay [1]; in assay [2]; with KPL-4 cells) were 5 nM, 46 nM and 1810 nM, respectively.
On the same counts, the results for `Cc1ccc(-c2cnc3cc(-c4ccccc4)c(-c4ccc(C5(N)CCC5)cc4)nn23)cc1` [Example 4-4, 1-[4-(7-Phenyl-3-p-tolyl-imidazo[1,2-b]pyridazin-6-yl)-phenyl]-cyclobutylamine] are 44 nM, 277 nM and 6000 nM.
Turning to `CCc1c(C)nc2cc(-c3ccccc3)c(-c3ccc(C4(N)CCC4)cc3)nn12` [Example 13-0, 1-[4-(3-Ethyl-2-methyl-7-phenyl-imidazo[1,2-b]pyridazin-6-yl)-phenyl]-cyclobutylamine], the IC50 came to 10000 nM in assay [3] and 2470 nM in the assay with KPL-4 cells.
`N#Cc1ccc(-c2cnc3cc(-c4ccccc4)c(-c4ccc(C5(N)CCC5)cc4)nn23)cc1` [Example 4-1, 4-{6-[4-(1-Amino-cyclobutyl)-phenyl]-7-phenyl-imidazo[1,2-b]pyridazin-3-yl}-benzonitrile]: the IC50 in assay [1] was 129 nM; in assay [2], 136 nM; in the assay on KPL-4 cells, 2030 nM.
On the same counts, the results for `NC1(c2ccc(-c3nn4c(-c5ccc6cn[nH]c6c5)cnc4cc3-c3ccccc3)cc2)CCC1` [Example 4-16, 1-{4-[3-(1H-indazol-6-yl)-7-phenyl-imidazo[1,2-b]pyridazin-6-yl]-phenyl}-cyclobutylamine] are 11 nM, 22 nM and 5170 nM.
